Results from US11940441B2, “Low shear microfluidic devices and methods of use and manufacturing thereof” (President and Fellows of Harvard College, priority 2013, dated 2024).

Legend:
Format in all cases: cell-based, human
[1] = tested on: COPD and healthy differentiated epithelial cells; experiment: Cytokine response of differentiated COPD and healthy epithelia to TLR stimulation in the device; conditions: for IL8 secretion: LPS stimulation; for M-CSF secretion: poly(I:C) stimulation
Description: FIGS. 26A-26E are data graphs showing COPD disease phenotype can be established in the device according to one or more embodiments described herein. […] FIG. 26B compares IL-8 secretion between COPD and healthy epithelia after LPS (lipopolysaccharides) stimulation. FIG. 26C compares M-CSF secretion between COPD and healthy epithelia after […] (polyinosinic:polycytidylic acid) stimulation.
It was next sought to determine cytokine production in response to TLR stimulation. Cytokines are molecules that are involved in inflammation and their generation can be modulated by TLR activation. After the well-differentiated (i.e. mucociliary) epithelium (normal and COPD-derived) was stimulated with lipopolysaccharides (LPS), a qPCR was performed on the cells to compare inflammatory response between COPD and healthy epithelia in the devices described herein. LPS is a bacterial derived molecule that stimulates TLR4. […] This is in line with clinical reports and other ex vivo observations that COPD patients are hyper-reactive inflammation-wise and produce more pro-inflammatory mediators. […] M-CSF is a cytokine that promotes survival and differentiations of a subset of immune cells, e.g., macrophages, in our bodies. This agrees with general observations that in the lungs of COPD patients there is generally an increased number of macrophages as compared to the number of macrophages in healthy individuals.

[2] = tested on: differentiated airway cells; experiment: IL-13 induced asthma-like phenotype in the airway-on-a-chip
Description: FIGS. 30A-30D show induction of asthma-like phenotype in the airway-on-a-chip for assessment of drug efficacy. […] FIG. 30B is a bar graph showing quantification of globet cell coverage based on the fluorescent images (representative images shown in FIG. 30A). FIG. 30C is a set of bar graphs showing secretion of G-CSF and GM-CSF by IL-13 stimulated cells, as compared to cells without IL-13 stimulation. FIG. 30D is a bar graph showing cilia beating frequency under indicated conditions. In FIGS. 30B-30D, the “airway” devices were also used to assess the drug efficacy of Tofacitinib, a JAK inhibitor, by treating the IL-13 stimulated cells with Tofacitinib, and measuring each phenotype as described above accordingly.
To develop asthma-like phenotype in the devices described herein, airway cells were differentiated in the devices, e.g., using the methods as described in Example 1 or 2, and then stimulated with IL-13 to induce asthma-like phenotype in the devices. IL-13 is a protein secreted by immune cells which is found in high quantities in lungs of asthmatics.
The “airway” devices were then used to assess the drug efficacy of Tofacitinib, a JAK inhibitor.

[3] = tested on: COPD epithelium-microvascular endothelium co-culture; experiment: Inflammatory cytokine secretion from the microvascular channel of COPD co-culture devices (Multiplex Cytokine Detection System); conditions: budesonide 10 nM or PFI-2 500 nM, poly (I:C) 10 μg/ml 6 h
Description: (§1) FIGS. 28A-28C show capability of determining drug efficacy on neutrophil capture and adhesion and inflammation suppression in a small airway mimicking device according to one or more embodiments described herein. (FIG. 28A) Representative immunofluorescence images showing adhesion of recruited neutrophils under three different conditions: (left) no drug; (middle) budesonide; (right) PFI-2. Neutrophils were stained with Hoechst immediately prior to experiment to allow visualization and quantification. (FIG. 28B) Bar graph showing percentage change in neutrophil adhesion to activated endothelium as imaged in FIG. 28A. (n=3 different donors per condition; 7-8 devices per condition from 4 independent experiments; 4-5 distinct fields per chip). (FIG. 28C) A set of bar graphs showing levels of different cytokine secretion modulated by the indicated drug or under no treatment. Cytokines measured include: neutrophil-attractant IL-8, GROα, and GM-CSF, monocyte-chemoattractant MCP-1, and acute inflammation associated cytokine IL-6. (n=3 donors per condition).
COPD epithelium-microvascular endothelium co-culture devices were established, e.g., as described in Example 1 or 2, and then were either treated with the corticosteroid drug budesonide (10 nM) or PFI-2 (a bromodomain-containing protein 4 (BRD4) inhibitor drug; 500 nM), or left untreated. The COPD epithelium was then stimulated with poly (I:C) 10 μg/ml via the “airway lumen” channel for 6 h and then examined for adhesion of recruited neutrophils. Neutrophils were stained with Hoechst immediately prior to experiment to allow visualization and quantification. Representative immunofluorescence images of the three conditions are illustrated in FIG. 28A.
To compare the ability of budesonide and PFI-2 in suppressing inflammatory cytokine secretion, secreted cytokines from the “microvascular” channel of the co-culture devices were also analyzed by Multiplex Cytokine Detection System prior to neutrophil recruitment assay.

[4] = tested on: neutrophil adhesion to activated endothelium; experiment: Neutrophil capture and adhesion in COPD epithelium-microvascular endothelium co-culture device after poly (I:C); conditions: budesonide 10 nM or PFI-2 500 nM; poly (I:C) 10 μg/ml for 6 h; compared with no treatment
Description: as §1, with “(FIG. 28C) A set of bar graphs showing levels of different cytokine secretion modulated by the indicated drug or under no treatment.” left out, “(n=3 donors per condition).” left out
COPD epithelium-microvascular endothelium co-culture devices were established, e.g., as described in Example 1 or 2, and then were either treated with the corticosteroid drug budesonide (10 nM) or PFI-2 (a bromodomain-containing protein 4 (BRD4) inhibitor drug; 500 nM), or left untreated. […] Neutrophils were stained with Hoechst immediately prior to experiment to allow visualization and quantification. […]
Effects of budesonide and PFI-2 on neutrophil adhesion were quantified.

[5] = tested on: pulmonary microvascular endothelial cells; experiment: Cell adhesion molecule gene expression in endothelial cells after apical poly (I:C) challenge of co-cultured epithelium; conditions: apical poly (I:C) 10 μg/ml for 6 h, compared to cells without challenge
Description: FIGS. 27A-27C show establishment of a three-cell type microfluidic co-culture system comprising ciliated epithelium, endothelium and circulating leukocytes. (FIG. 27A) Left panel: a 3D cross-sectional diagram of one embodiment of the devices described herein used to re-create post-capillary venules (major sites of leukocyte recruitment and adhesion in vivo). Middle panel: a schematic diagram showing a 3-cell type co-culture of epithelium, endothelium and neutrophils (all primary cells). Right panel: vertical immunofluorescence cross-section of ciliated epithelium and endothelium bilayer on-device. Ciliated cells were labeled for β-tubulin IV and endothelial cells were stained with anti-CD31/PECAM-1 antibody. Nuclei were counterstained with DAPI. Scale bar, 20 μm. […] Following initial attachment the neutrophil crawled over apical surface of activated endothelium and then firmly adhered (times indicated in seconds). Neutrophils and endothelial cells had been live stained with CellTracker Red and Calcein AM, respectively. (FIG. 27C) Bar graphs showing E-selectin and VCAM1 mRNA levels in endothelia cells upon treatment of differentiated epithelial cells with or without poly (I:C). (3 devices per condition were used) […]

[6] = tested on: differentiated airway epithelial cells; experiment: Infection response of differentiated airway epithelial cells to TLR-3 ligand poly I:C in the device
Description: FIGS. 11A-11D illustrate an exemplary method of evaluating an infection response of differentiated small airway epithelial cells and optionally immune cells in a device in accordance with an embodiment, and experimental data resulting therefrom. FIG. 11A is a schematic diagram illustrating an example method to evaluate an infection response in the device. Primary small airway epithelial cells were seeded on the membrane in the mesochannel (an “airway lumen” channel) for differentiation into ciliated and/or mucus-secreting cells following the differentiation method as described in FIG. 5A. Upon differentiation of the airway epithelial cells, another surface of the membrane (facing the microchannel, the “blood vessel” channel) could be seeded with or without endothelial cells. The differentiated cells in the mesochannel were then challenged with a toll-like receptor 3 (TLR-3) ligand poly I:C to induce inflammation. A fluid comprising immune cells (e.g., human monocytes) was introduced into the “blood vessel” channel, either with a static fluid or a flowing fluid, to determine effects of TLR-3-induced inflammation on cytokine/chemokine profiles of the differentiated cells and/or recruitment of immune cells (e.g., monocytes and/or neutrophils). […] FIG. 11C is a set of data showing quantification of monocytes attached to the TLR-3 activated differentiated epithelial cells in the device and the associated fluorescent images. FIG. 11D is a graph showing gene expression of differentiated epithelial cells after treatment with or without a TLR-3 ligand poly I:C.
By way of example only, FIGS. 11A-11D illustrate the capability of using one embodiment of the device described herein to model a bacterial/viral infection. […] Cytokines or chemokines secreted into the fluid flowing in the mesochannel and/or microchannel can be measured by collecting from the outlet an aliquot of the fluid exiting the mesochannel and/or microchannel, which is then subjected to cytokine/chemokine expression analyses.

[7] = IL-13 stimulation compared to cells without IL-13 stimulation
[8] = drug treatment of IL-13 stimulated cultures
[9] = healthy donor and COPD epithelial cells, poly (I:C) stimulation

lipopolysaccharides [LPS]
IL8 secretion ([1]; COPD epithelial cells): selectively induced
IL8 secretion ([1]; healthy epithelial cells): without increasing

IL-13: a protein secreted by immune cells which is found in high quantities in lungs of asthmatics
cilia beating frequency [2, 7]: lower cilia beating frequency
number of goblet cells [2, 7]: higher number of goblet cells
secretion of G-CSF [2, 7]: higher secretion
secretion of GM-CSF [2, 7]: higher secretion

C[C@@H]1CCN(C(=O)CC#N)C[C@@H]1N(C)c1ncnc2[nH]ccc12 [Tofacitinib]
G-CSF secretion [2, 8]: decrease GM-CSF and G-CSF secretion
GM-CSF secretion [2, 8]: decrease GM-CSF and G-CSF secretion
cilia beating frequency [2, 8]: increase cilia beating frequency
number of goblet cells [2, 8]: decrease the number of goblet cells

Cl.O=C([C@@H](Cc1cccc(C(F)(F)F)c1)NS(=O)(=O)c1cc(F)c2c(c1)CCNC2)N1CCCC1 [PFI-2]
secretion of GM-CSF [3]: significantly lowered
secretion of GROα [3]: significantly lowered
secretion of IL-6 [3]: significantly lowered
secretion of IL-8 [3]: significantly lowered
secretion of MCP-1 [3]: significantly lowered
neutrophil recruitment / adhesion to activated endothelium [4]: significantly lowered

polyinosinic:polycytidylic acid [poly (I:C)]
E-selectin gene expression in endothelial cells [5]: significant up-regulation
VCAM-1 transcript levels in endothelial cells [5]: higher, but not statistically significant
M-CSF secretion ([1]; COPD epithelial cells): selectively up-regulated
expression of IP-10 [1, 9]: induced in both healthy donor and COPD epithelial cells
expression of RANTES [1, 9]: induced in both healthy donor and COPD epithelial cells
M-CSF secretion ([1]; healthy epithelial cells): no significant change
release of chemokines (monocyte and neutrophil chemoattractants) ([6]; TLR-3 activation of differentiated airway epithelial cells): stimulates release of chemokines
monocyte adhesion to differentiated epithelial cells ([6]; TLR-3 stimulation): enhances monocyte adhesion
epithelial cells' gene expression of IP-10 ([6]; differentiated epithelial cells with or without poly I:C): significantly increases
